Assay results from patent US20250115591A1, “NOVEL SULFONAMIDE CARBOXAMIDE COMPOUNDS” (INFLAZOME LIMITED, priority 2017, published 2025).
Where a name gives a salt, the structure may show the parent alone. Read-outs that look alike come from different tables or passages of the source.

Tests used:
[1] = PK, intravenous administration; assay type: in vivo, male Sprague Dawley rats; conditions: male, Sprague Dawley, rat
Protocol: Pharmacokinetic parameters were determined in male Sprague Dawley rats (Charles River, UK, 250-300 g; or Vital River Laboratory Animal Technology Co Ltd, Beijing, China, 7-9 weeks old). Animals were individually housed during the study and maintained under a 12 h light/dark cycle. Animals had free access to food and water except that orally dosed animals were food deprived overnight prior to the study. For intravenous administration, compounds were formulated as a solution in water or DMSO:PBS [10:90] in 2 mL/kg dosing volume and administered via tail vein. For oral administration, compounds were formulated as a solution in water or DMSO:water [10:90] in 5 mL/kg dosing volume and administered orally. Serial blood samples (about 120-300 μL) were taken from each animal at each of 8 time-points post dose (0.083, 0.25, 0.5, 1, 2, 4, 8 and 24 h). Samples were held on ice for no longer than 30 minutes before centrifugation (10,000 rpm (8,385 g) for 3 minutes; or 5,696 rpm (3,000 g) for 15 minutes) for plasma generation. Plasma was frozen on dry ice prior to bioanalysis. PK parameters were generated from LC-MS/MS data using Dotmatics or Phoenix WinNonlin 6.3 software.

NLRP3 = NLRP3 (Homo sapiens (Human), UniProt Q96P20); assay: THP-1 cells pyroptosis assay (LPS + nigericin, resazurin read-out); assay type: cell-based; conditions: 1 μg/ml LPS, 5 μM nigericin
Protocol: THP-1 cells (ATCC #TIB-202) were grown in RPMI containing L-glutamine (Gibco 15 #11835) supplemented with 1 mM sodium pyruvate (Sigma #S8636) and penicillin (100 units/ml)/streptomycin (0.1 mg/ml) (Sigma #P4333) in 10% Fetal Bovine Serum (FBS) (Sigma #F0804). The cells were routinely passaged and grown to confluency (˜10^6 cells/ml). On the day of the experiment, THP-1 cells were harvested and resuspended into RPMI medium (without FBS). The cells were then counted and viability (>90%) checked by Trypan blue (Sigma #T8154). Appropriate dilutions were made to give a concentration of 625,000 cells/ml. To this diluted cell solution was added LPS (Sigma #[4524) to give a 1 μg/ml Final Assay Concentration (FAC). 40μ of the final preparation was aliquoted into each well of a 96-well plate. The plate thus prepared was used for compound screening.
The following method step-by-step assay was followed for compound screening. • 1. Seed THP-1 cells (25,000 cells/well) containing 1.0 μg/ml LPS in 40μ of RPMI medium (without FBS) in 96-well, black walled, clear bottom cell culture plates coated with poly-D-lysine (VWR #734-0317) • 2. Add 5 μl compound (8 points half-log dilution, with […]) or vehicle (DMSO 0.1% FAC) to the appropriate wells • 3. Incubate for 3 hrs at 37° C. and 5% CO2 • 4. Add 5 μl nigericin (Sigma #N7143) (FAC 5 μM) to all wells • 5. Incubate for 1 hr at 37° C. and 5% CO2 • 6. At the end of the incubation period, spin plates at 300×g for 3 mins and remove supernatant • 7. Then add 50 μl of resazurin (Sigma #R7017) (FAC 100 μM resazurin in RPMI medium without FBS) and incubate plates for a further 1-2 hrs at 37° C. and 5% CO2 • 8. Plates were read in an Envision reader at Ex 560 nm and Em 590 nm • 9. IC50 data is fitted to a non-linear regression equation (log inhibitor vs response-variable slope 4-parameters)

NLRP3, sequence (Q96P20 whole entry): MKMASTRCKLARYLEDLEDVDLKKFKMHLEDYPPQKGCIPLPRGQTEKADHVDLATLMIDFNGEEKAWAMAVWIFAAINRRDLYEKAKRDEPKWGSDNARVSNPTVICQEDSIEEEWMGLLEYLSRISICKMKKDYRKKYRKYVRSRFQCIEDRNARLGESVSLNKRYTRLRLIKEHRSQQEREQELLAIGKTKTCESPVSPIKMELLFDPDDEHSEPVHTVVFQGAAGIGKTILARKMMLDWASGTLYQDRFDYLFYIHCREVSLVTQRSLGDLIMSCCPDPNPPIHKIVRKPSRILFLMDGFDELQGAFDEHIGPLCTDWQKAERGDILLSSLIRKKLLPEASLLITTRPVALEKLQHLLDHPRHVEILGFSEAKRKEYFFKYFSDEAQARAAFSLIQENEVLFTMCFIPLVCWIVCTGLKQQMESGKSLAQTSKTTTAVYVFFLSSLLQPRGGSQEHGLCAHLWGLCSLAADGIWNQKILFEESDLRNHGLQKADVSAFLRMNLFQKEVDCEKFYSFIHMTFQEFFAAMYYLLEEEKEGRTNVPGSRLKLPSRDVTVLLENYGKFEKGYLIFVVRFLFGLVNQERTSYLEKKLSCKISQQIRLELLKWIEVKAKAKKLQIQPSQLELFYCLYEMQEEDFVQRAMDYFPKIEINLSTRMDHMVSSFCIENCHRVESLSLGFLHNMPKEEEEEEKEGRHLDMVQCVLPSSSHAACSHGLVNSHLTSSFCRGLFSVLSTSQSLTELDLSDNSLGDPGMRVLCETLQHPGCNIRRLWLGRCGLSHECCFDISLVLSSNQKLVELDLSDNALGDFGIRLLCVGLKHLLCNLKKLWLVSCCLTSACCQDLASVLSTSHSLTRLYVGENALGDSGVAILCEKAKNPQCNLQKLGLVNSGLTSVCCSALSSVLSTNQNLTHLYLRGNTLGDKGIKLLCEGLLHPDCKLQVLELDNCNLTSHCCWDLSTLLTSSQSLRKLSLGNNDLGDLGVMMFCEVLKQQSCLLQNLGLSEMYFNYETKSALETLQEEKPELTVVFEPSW

SMILES	IC50 (NLRP3) [µM]	also measured
CCN1CCC(S(=O)(=O)NC(=O)Nc2c3c(cc4c2CCC4)CCC3)C1 (centres unmarked) [Example 37, 1-Ethyl-N-((1,2,3,5,6,7-hexahydro-s-indacen-4-yl)carbamoyl) pyrrolidine-3-sulfonamide, potassium salt]	–	AUC ([1]; plasma, intravenous, dose 1.46 mg/kg, read-out: AUC): 2.25 µg·h/mL; clearance ([1]; plasma, intravenous, dose 1.46 mg/kg, read-out: Cl): 0.648 L/h/kg; half-life ([1]; plasma, intravenous, dose 1.46 mg/kg, read-out: T1/2 (converted)): 2.1 h; Vd ([1]; plasma, intravenous, dose 1.46 mg/kg, read-out: Vdss): 0.59 L/kg
O=C(Nc1c2c(cc3c1CCC3)CCC2)NS(=O)(=O)C1CN(C2CCC2)C1 [Example 18, 1-Cyclobutyl-N-((1,2,3,5,6,7-hexahydro-s-indacen-4-yl)carbamoyl)azetidine-3-sulfonamide, potassium salt]	–	AUC ([1]; plasma, intravenous, dose 1 mg/kg, read-out: AUC): 1.53 µg·h/mL; clearance ([1]; plasma, intravenous, dose 1 mg/kg, read-out: Cl): 0.654 L/h/kg; half-life ([1]; plasma, intravenous, dose 1 mg/kg, read-out: T1/2 (converted)): 0.9 h; Vd ([1]; plasma, intravenous, dose 1 mg/kg, read-out: Vdss): 0.42 L/kg
CC(C)N1[C@@H]2CC[C@H]1C[C@@H](S(=O)(=O)NC(=O)Nc1c3c(cc4c1CCC4)CCC3)C2 [Example 45, (1R*,3R*,5S*)—N-((1,2,3,5,6,7-Hexahydro-s-indacen-4-yl)carbamoyl)-8-isopropyl-8-azabicyclo[3.2.i]octane-3-sulfonamide, potassium salt]	–	AUC ([1]; in vivo, iv, 0.66 mg/kg): 0.703 µg·h/mL; Vd ([1]; in vivo, iv, 0.66 mg/kg): 2.06 L/kg; clearance ([1]; in vivo, iv, 0.66 mg/kg): 0.936 L/h/kg; half-life ([1]; in vivo, iv, 0.66 mg/kg): 3.3 h
CCN1[C@@H]2CC[C@H]1C[C@H](S(=O)(=O)NC(=O)Nc1c3c(cc4c1CCC4)CCC3)C2 [Example 70, N-((1,2,3,5,6,7-Hexahydro-s-indacen-4-yl)carbamoyl)-8-ethyl-8-azabicyclo[3.2.1]octane-3-sulfonamide exo isomers, potassium salt]	–	AUC ([1]; in vivo, iv, 1.86 mg/kg): 2.55 µg·h/mL; Vd ([1]; in vivo, iv, 1.86 mg/kg): 0.53 L/kg; clearance ([1]; in vivo, iv, 1.86 mg/kg): 0.726 L/h/kg; half-life ([1]; in vivo, iv, 1.86 mg/kg): 1.7 h
CC1(C)CC(N2CC(S(=O)(=O)NC(=O)Nc3c4c(cc5c3CCC5)CCC4)C2)C1 [Example 119, 1-(3,3-Dimethylcyclobutyl)-N-((1,2,3,5,6,7-hexahydro-s-indacen-4-yl)carbamoyl)azetidine-3-sulfonamide, potassium salt]	1 to 10	–
CC(C)(C)[Si](C)(C)OCCN1CC(S(=O)(=O)NC(=O)Nc2c3c(cc4c2CCC4)CCC3)C1 [Example 151, 1-(2-((tert-Butyldimethylsilyl)oxy)ethyl)-N-((1,2,3,5,6,7-hexahydro-s-indacen-4-yl)carbamoyl)azetidine-3-sulfonamide, potassium salt]	< 1	–
CC(C)N1CC(N2CCC(S(=O)(=O)NC(=O)Nc3c4c(cc5c3CCC5)CCC4)C2)C1 (centres unmarked) [Example 51, N-((1,2,3,5,6,7-Hexahydro-s-indacen-4-yl)carbamoyl)-1-(1-isopropylazetidin-3-yl)pyrrolidine-3-sulfonamide, potassium salt]	1 to 10	–
COCC(=O)N1CCC(S(=O)(=O)NC(=O)Nc2c3c(cc4c2CCC4)CCC3)CC1 [Example 12, N-((1,2,3,5,6,7-Hexahydro-s-indacen-4-yl)carbamoyl)-1-(2-methoxyacetyl)piperidine-4-sulfonamide, potassium salt]	1 to 10	–
CC(C)N1CC(N2CCC(S(=O)(=O)NC(=O)Nc3c4c(cc5c3CCC5)CCC4)CC2)C1 [Example 62, N-((1,2,3,5,6,7-Hexahydro-s-indacen-4-yl)carbamoyl)-1-(1-isopropylazetidin-3-yl)piperidine-4-sulfonamide, potassium salt]	1 to 10	–
CC(C)N1CCC(S(=O)(=O)NC(=O)Nc2c3c(cc4c2CCC4)CCC3)CC1 [Example 47, N-((1,2,3,5,6,7-Hexahydro-s-indacen-4-yl)carbamoyl)-1-iso-propylpiperidine-4-sulfonamide, potassium salt]	1 to 10	–
CN(C)C(=O)N1CCC(S(=O)(=O)NC(=O)Nc2c3c(cc4c2CCC4)CCC3)CC1 [Example 61, 4-(N-((1,2,3,5,6,7-Hexahydro-s-indacen-4-yl)carbamoyl)sulfamoyl)-N,N-dimethylpiperidine-1-carboxamide]	1 to 10	–
O=C(Nc1c2c(cc3c1CCC3)CCC2)NS(=O)(=O)C1CCN(CC(F)(F)F)CC1 [Example 67, N-((1,2,3,5,6,7-Hexahydro-s-indacen-4-yl)carbamoyl)-1-(2,2,2-trifluoroethyl)piperidine-4-sulfonamide, potassium salt]	1 to 10	–
COc1cc(-c2cc(F)cc(C(C)C)c2NC(=O)NS(=O)(=O)C2CN(Cc3cccnc3)C2)ccn1 [Example 177, N-((4-Fluoro-2-isopropyl-6-(2-methoxypyridin-4-yl)phenyl)carbamoyl)-1-(pyridin-3-ylmethyl)azetidine-3-sulfonamide]	1 to 10	–
CN1CC(N2CC(S(=O)(=O)NC(=O)Nc3c4c(cc5c3CCC5)CCC4)C2)C1 [Example 110, N-((1,2,3,5,6,7-Hexahydro-s-indacen-4-yl)carbamoyl)-1′-methyl-[1,3′-biazetidine]-3-sulfonamide, potassium salt]	1 to 10	–
CN(C)CCn1cc(S(=O)(=O)NC(=O)Nc2c3c(cc4c2CCC4)CCC3)ccc1=O [Example 184, 1-(2-(Dimethylamino)ethyl)-N-((1,2,3,5,6,7-hexahydro-s-indacen-4-yl)carbamoyl)-6-oxo-1,6-dihydropyridine-3-sulfonamide]	1 to 10	–
O=C(Nc1c2c(cc3c1CCC3)CCC2)NS(=O)(=O)C1CN2CCC1CC2 (centres unmarked) [Example 43, N-((1,2,3,5,6,7-Hexahydro-s-indacen-4-yl)carbamoyl) quinuclidine-3-sulfonamide, potassium-salt]	1 to 10	–
CC(C)c1cc(F)cc(-c2ccnc(C#N)c2)c1NC(=O)NS(=O)(=O)C1CN(C(C)C)C1 [Example 157, N-((2-(2-Cyanopyridin-4-yl)-4-fluoro-6-isopropylphenyl)carbamoyl)-1-isopropylazetidine-3-sulfonamide]	1 to 10	–
O=C(Nc1c2c(cc3c1CCC3)CCC2)NS(=O)(=O)C1CCN(C2CC2)CC1 [Example 23, 1-Cyclopropyl-N-((1,2,3,5,6,7-hexahydro-s-indacen-4-yl)carbamoyl)piperidine-4-sulfonamide, potassium salt]	1 to 10	–
O=C(Nc1c2c(cc3c1CCC3)CCC2)NS(=O)(=O)C1CCCN(C(=O)NC2CCC2)C1 (centres unmarked) [Example 27, N-Cyclobutyl-3-(N-((1,2,3,5,6,7-hexahydro-s-indacen-4-yl)carbamoyl)sulfamoyl)piperidine-1-carboxamide, potassium salt]	1 to 10	–
CC(C)c1cc(F)cc(-c2ccnc(C#N)c2)c1NC(=O)NS(=O)(=O)C1CN(C2CCC2)C1 [Example 161, N-((2-(2-Cyanopyridin-4-yl)-4-fluoro-6-isopropylphenyl)carbamoyl)-1-cyclobutylazetidine-3-sulfonamide]	1 to 10	–
CCN1CCC(S(=O)(=O)NC(=O)Nc2c(-c3ccnc(C#N)c3)ccc3c2CCC3)CC1 [Example 190, N-((5-(2-Cyanopyridin-4-yl)-2,3-dihydro-1H-inden-4-yl)carbamoyl)-1-ethylpiperidine-4-sulfonamide, potassium salt]	1 to 10	–
CCN1CCC(N2CCC(S(=O)(=O)NC(=O)Nc3c4c(cc5c3CCC5)CCC4)C2)CC1 (centres unmarked) [Example 44, 1-(1-Ethylpiperidin-4-yl)-N-((1,2,3,5,6,7-hexahydro-s-indacen-4-yl)carbamoyl)pyrrolidine-3-sulfonamide, potassium salt]	1 to 10	–
C[Si](C)(C)CN1CC(S(=O)(=O)NC(=O)Nc2c3c(cc4c2CCC4)CCC3)C1 [Example 136, N-((1,2,3,5,6,7-Hexahydro-s-indacen-4-yl)carbamoyl)-1-((trimethylsilyl)methyl)azetidine-3-sulfonamide, potassium salt]	1 to 10	–
